Reference: PMC2760403 (The Journal of organic chemistry, 2009)

How the values were obtained:
Assay type in all cases: biochemical
[1] = biological target: E. coli Riboflavin Synthase (Escherichia coli, UniProt P0AFU8); test: Riboflavin synthase kinetic inhibition assay; details: recombinant E. coli RS
[2] = biological target: M. tuberculosis Lumazine Synthase (Mycobacterium tuberculosis, UniProt P9WHE9); details: recombinant M. tuberculosis LS; for kcat (rate constant ES → E + P): fit of the compound's data set; for kcat (rate constant ES → E + P) / Kis (inhibitor dissociation constant, ES + I ⇌ ESI): pH 7.0; for Kis (inhibitor dissociation constant, ES + I ⇌ ESI): substrate 1 varied, 2 constant
[3] = biological target: T1, S. pombe Lumazine Synthase (Schizosaccharomyces pombe, UniProt Q9UUB1); test: Lumazine synthase kinetic inhibition assay; details: recombinant S. pombe LS; for kcat (rate constant ES → E + P): fit of the compound's data set; for kcat (rate constant ES → E + P) / Kis (inhibitor dissociation constant, ES + I ⇌ ESI): pH 7.0; for Kis (inhibitor dissociation constant, ES + I ⇌ ESI): substrate 1 varied, 2 constant
T1 sequence (Q9UUB1 1-159): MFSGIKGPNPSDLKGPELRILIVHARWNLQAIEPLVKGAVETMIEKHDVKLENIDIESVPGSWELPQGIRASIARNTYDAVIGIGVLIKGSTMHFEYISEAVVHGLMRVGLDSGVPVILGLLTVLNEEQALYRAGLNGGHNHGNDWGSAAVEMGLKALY

Sequence of E. coli Riboflavin Synthase (P0AFU8 whole entry): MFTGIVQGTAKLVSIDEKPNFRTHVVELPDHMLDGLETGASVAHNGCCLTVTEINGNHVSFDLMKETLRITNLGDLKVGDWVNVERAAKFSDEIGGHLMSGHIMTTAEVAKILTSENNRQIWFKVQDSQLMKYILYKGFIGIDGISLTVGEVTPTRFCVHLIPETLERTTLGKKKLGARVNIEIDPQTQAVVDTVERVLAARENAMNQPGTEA
Sequence of M. tuberculosis Lumazine Synthase (P9WHE9 whole entry): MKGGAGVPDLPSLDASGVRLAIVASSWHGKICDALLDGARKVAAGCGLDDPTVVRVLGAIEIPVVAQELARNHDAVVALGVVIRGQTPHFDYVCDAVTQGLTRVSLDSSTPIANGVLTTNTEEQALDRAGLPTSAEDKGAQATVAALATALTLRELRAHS

Row | Compound | Mode of inhibition [1] | kcat (rate constant ES → E + P) ([1]; fit of the compound's data set, pH 7.0) | Kis (inhibitor dissociation constant, ES + I ⇌ ESI) ([1]; pH 7.0) | Mode of inhibition [2] | kcat (rate constant ES → E + P) [2] | Kis (inhibitor dissociation constant, ES + I ⇌ ESI) [2] | Mode of inhibition [3] | kcat (rate constant ES → E + P) [3] | Kis (inhibitor dissociation constant, ES + I ⇌ ESI) [3]
1 | 5-Amino-(2-hydroxy-2-phenethyl)pyrimidine-2,4-(1H,3H)-dione [Compound 50] | Uncompetitive | 0.07 ± 0.0017 s⁻¹ | 788 ± 148 µM |  |  |  |  |  | 
2 | O=c1[nH]c(/C=C/c2ccccc2[N+](=O)[O-])c([N+](=O)[O-])c(=O)[nH]1 [Compound 14, (E)-6-(2-Nitrostyryl)-5-nitropyrimidine-2,4(1H,3H)-dione] |  |  |  | Partial | 0.00517 ± 0.00017 s⁻¹ | 49 ± 12 µM |  |  | 
3 | COc1ccccc1/C=C/c1[nH]c(=O)[nH]c(=O)c1[N+](=O)[O-] [Compound 19, (E)-6-(2-Methoxystyryl)-5-nitropyrimidine-2,4(1H,3H)-dione] |  |  |  | Partial | 0.00537 ± 6.7e-05 s⁻¹ | 44 ± 10 µM | Mixed | 0.0285 ± 0.00017 s⁻¹ | 733 ± 227 µM
4 | COc1ccc(/C=C/c2[nH]c(=O)[nH]c(=O)c2[N+](=O)[O-])cc1O [Compound 20, (E)-6-(3-Hydroxy-4-methoxystyryl)-5-nitropyrimidine-2,4(1H,3H)-dione] |  |  |  | Mixed | 0.00467 ± 0.00017 s⁻¹ | 74 ± 12 µM | Uncompetitive | 0.0235 ± 0.00033 s⁻¹ | 38 ± 2 µM
5 | COc1cccc(/C=C/c2[nH]c(=O)[nH]c(=O)c2[N+](=O)[O-])c1OC [Compound 21, (E)-6-(2,3-Dimethoxystyryl)-5-nitropyrimidine-2,4(1H,3H)-dione] |  |  |  | Mixed | 0.0055 ± 0.00017 s⁻¹ | 22 ± 6 µM | Competitive | 0.0368 ± 0.00033 s⁻¹ | 
6 | COc1ccc(/C=C/c2[nH]c(=O)[nH]c(=O)c2[N+](=O)[O-])cc1OC [Compound 22, (E)-6-(3,4-Dimethoxystyryl)-5-nitropyrimidine-2,4(1H,3H)-dione] |  |  |  | Mixed | 0.0055 ± 0.00017 s⁻¹ | 32 ± 3 µM |  |  | 
7 | COc1ccc(/C=C/c2[nH]c(=O)[nH]c(=O)c2[N+](=O)[O-])c(OC)c1OC [Compound 23, (E)-6-(2,3,4-Trimethoxystyryl)-5-nitropyrimidine-2,4(1H,3H)-dione] |  |  |  | Mixed | 0.00567 ± 0.00017 s⁻¹ | 97 ± 24 µM |  |  | 
8 | COc1cc(/C=C/c2[nH]c(=O)[nH]c(=O)c2[N+](=O)[O-])cc(OC)c1OC [Compound 24, (E)-6-(3,4,5-Trimethoxystyryl)-5-nitropyrimidine-2,4(1H,3H)-dione] |  |  |  | Mixed | 0.0045 ± 0.00017 s⁻¹ | 37 ± 5 µM | Uncompetitive | 0.0233 ± 0.0005 s⁻¹ | 47 ± 4 µM
9 | O=c1[nH]c(/C=C/c2cccc([N+](=O)[O-])c2)c([N+](=O)[O-])c(=O)[nH]1 [Compound 25, (E)-5-Nitro-6-(3-nitrostyryl)pyrimidine-2,4(1H,3H)-dione] |  |  |  | Mixed | 0.0055 ± 0.00017 s⁻¹ | 173 ± 50 µM | Mixed | 0.019 ± 0.00033 s⁻¹ | 496 ± 219 µM
10 | O=c1[nH]c(/C=C/c2ccc([N+](=O)[O-])cc2)c([N+](=O)[O-])c(=O)[nH]1 [Compound 26, (E)-5-Nitro-6-(4-nitrostyryl)pyrimidine-2,4(1H,3H)-dione] |  |  |  | Mixed | 0.0075 ± 0.00017 s⁻¹ | 37 ± 17 µM | Partial | 0.0217 ± 0.00033 s⁻¹ | 15 ± 5 µM
11 | O=C(O)c1ccc(/C=C/c2[nH]c(=O)[nH]c(=O)c2[N+](=O)[O-])cc1 [Compound 27, (E)-4-(2-(5-Nitro-2,6-dioxo-1,2,3,6-tetrahydropyrimidine-4-yl)vinyl)benzoic Acid] |  |  |  | Partial | 0.00588 ± 6.7e-05 s⁻¹ | 78 ± 38 µM | Mixed | 0.0232 ± 0.0005 s⁻¹ | 187 ± 43 µM
12 | O=c1[nH]c(/C=C/c2ccccc2F)c([N+](=O)[O-])c(=O)[nH]1 [Compound 28, (E)-6-(2-Fluorostyryl)-5-nitropyrimidine-2,4(1H,3H)-dione] |  |  |  | Mixed | 0.0045 ± 0.00017 s⁻¹ | 13 ± 3 µM |  |  | 
13 | O=c1[nH]c(/C=C/c2ccc(Br)cc2)c([N+](=O)[O-])c(=O)[nH]1 [Compound 30, (E)-5-Nitro-6-(4-bromostyryl)pyrimidine-2,4(1H,3H)-dione] |  |  |  | Mixed | 0.00567 ± 0.00017 s⁻¹ | 234 ± 59 µM | Uncompetitive | 0.0205 ± 0.00017 s⁻¹ | 604 ± 54 µM
14 | O=c1[nH]c(/C=C/c2ccc(Cl)cc2)c([N+](=O)[O-])c(=O)[nH]1 [Compound 31, (E)-6-(4-Chlorostyryl)-5-nitropyrimidine-2,4(1H,3H)-dione] |  |  |  | Mixed | 0.00617 ± 0.00017 s⁻¹ | 188 ± 38 µM |  |  | 
15 | COc1ccc([N+](=O)[O-])cc1/C=C/c1[nH]c(=O)[nH]c(=O)c1[N+](=O)[O-] [Compound 34, (E)-6-(2-Methoxy-5-nitrostyryl)-5-nitropyrimidine-2,4(1H,3H)-dione] |  |  |  | Mixed | 0.00633 ± 0.00017 s⁻¹ | 225 ± 59 µM | Mixed | 0.0182 ± 0.00033 s⁻¹ | 682 ± 409 µM
16 | O=c1[nH]c(/C=C/c2ccc(O)c([N+](=O)[O-])c2)c([N+](=O)[O-])c(=O)[nH]1 [Compound 36, (E)-6-(4-Hydroxy-3-nitrostyryl)-5-nitropyrimidine-2,4(1H,3H)-dione] |  |  |  | Mixed | 0.00617 ± 0.00017 s⁻¹ | 461 ± 150 µM | Uncompetitive | 0.022 ± 0.00017 s⁻¹ | 276 ± 16 µM
17 | O=C(O)c1ccc(/C=C/c2[nH]c(=O)[nH]c(=O)c2[N+](=O)[O-])c(O)c1 [Compound 37, (E)-3-Hydroxy-4-(2-(5-nitro-2,6-dioxo-1,2,3,6-tetrahydropyrimidine-4-yl)vinyl)benzoic Acid] |  |  |  | Mixed | 0.00667 ± 0.00017 s⁻¹ | 468 ± 113 µM | Mixed | 0.0273 ± 0.00033 s⁻¹ | 921 ± 640 µM
18 | COc1cccc(/C=C/c2[nH]c(=O)[nH]c(=O)c2[N+](=O)[O-])c1F [Compound 38, (E)-6-(2-Fluoro-3-methoxystyryl)-5-nitropyrimidine-2,4(1H,3H)-dione] |  |  |  | Mixed | 0.00583 ± 0.00017 s⁻¹ | 89 ± 11 µM | Mixed | 0.0165 ± 0.00017 s⁻¹ | 390 ± 90 µM
19 | O=c1[nH]c(C=Cc2ccccc2)c([N+](=O)[O-])c(=O)[nH]1 [Compound 39, 5-Nitro-6-styryluracil] |  |  |  | Partial |  | 15 ± 4 µM | Competitive | 0.0367 ± 0.0017 s⁻¹ | 
20 | O=c1[nH]c(/C=C/c2cccnc2)c([N+](=O)[O-])c(=O)[nH]1 [Compound 42, (E)-5-Nitro-6-(3-(pyridine-3-yl)vinyl)pyrimidine-2,4(1H,3H)-dione] |  |  |  | Partial | 0.007 ± 0.00017 s⁻¹ | 24 ± 10 µM |  |  | 
21 | O=c1[nH]c(NCc2ccccc2)c([N+](=O)[O-])c(=O)[nH]1 [Compound 45, 6-(Benzylamino)-5-nitropyrimidine-2,4(1H,3H)-dione] |  |  |  | Uncompetitive | 0.00933 ± 0.00017 s⁻¹ | 823 ± 128 µM |  |  | 
22 | O=c1[nH]c(NCc2ccccc2O)c([N+](=O)[O-])c(=O)[nH]1 [Compound 46, 6-(2-Hydroxybenzylamino)-5-nitropyrimidine-2,4(1H,3H)-dione] |  |  |  | Uncompetitive | 0.0103 ± 0.00033 s⁻¹ | 904 ± 193 µM |  |  | 
23 | O=C1OC(Cc2[nH]c(=O)[nH]c(=O)c2[N+](=O)[O-])c2ccccc21 (stereo not drawn) [Compound 49, 5-Nitro-6-[(3-oxo-1,3-dihydroisobenzofuran-1-yl)methyl]pyrimidine-2,4-(1H,3H)-dione] |  |  |  |  |  |  | Uncompetitive | 0.0187 ± 0.00033 s⁻¹ | 154 ± 13 µM
